Reference: the supplement of paper PMC3974653
Structures can show the parent of a compound that is named as a salt.

Tested on: MTT (mouse pheochromocytoma)
Assay: IC50 of cell viability (ATP content)
Settings: (24 or 48 h)
How it was run: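 MTT mouse pheochromocytoma cells were seeded into white 1536-well plates at 5 µl per well from a 200,000 cells/ml suspension in DMEM with 5% FBS and 1% horse serum, then cultured overnight at 37°C, 5% CO2. A pintool added 23 nl of library compound in DMSO at 8 concentrations (final 0.5 nM to 46 µM) for 24 or 48 hrs, and CellTiter-Glo ATP luminescence was read after 15 minutes. Signals were scaled so that positive-control wells equalled 100% and DMSO wells 0%. IC50 values were derived by fitting a four-parameter logistic curve.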

SMILES | IC50 of cell viability [µM]
CCOC(=O)C1=C(C)NC(C)=C(C(=O)OCC)C1c1ccccc1/C=C\C(=O)OC(C)(C)C [Lacidipine] | > 46
[Na+].C[N]1N=NN=C1SC\C2=C(\[N@]3[C@@H](SC2)[C@H](NC(=O)[C@@H](O)C4=CC=CC=C4)C3=O)C([O-])=O [Cefamandole sodium salt] | > 46
COc1ccc2[nH]c([S+]([O-])Cc3ncc(C)c(OC)c3C)nc2n1 (stereo unspecified) [TENATOPRAZOLE] | > 46
Cl.CN(C)C\1[C@@H]2C[C@H]3CC4=C(C(=CC=C4N(C)C)O)C(=O)\C3=C(O)\[C@]2(O)C(=O)\C(=C1O)C(N)=O (stereo partly specified) [MINOCYCLINE HYDROCHLORIDE] | > 46
O=C(O)CCCCC1SCC2NC(=O)NC21 (stereo unspecified) [Vitamin B7] | > 46
Cl.N[C@@H](Cc1c[nH]cn1)C(=O)O [L-Histidine hydrochloride] | > 46
CC[C@H](C)[C@H]1O[C@]2(CC[C@@H]1C)C[C@@H]1C[C@@H](C/C=C(\C)[C@H](O[C@@H]3C[C@H](OC)[C@H](O[C@@H]4C[C@H](OC)[C@@H](O)[C@H](C)O4)[C@H](C)O3)[C@@H](C)/C=C/C=C3\CO[C@@H]4[C@H](O)C(C)=C[C@@H](C(=O)O1)[C@]34O)O2 [IVERMECTIN] | > 46
CN1CCC(OC(c2ccccc2)c2ccccc2)CC1 [Diphenylpyraline hydrochloride] | > 46
O=C([O-])c1cc(Oc2ccc(C(F)(F)F)cc2Cl)ccc1[N+](=O)[O-] [Acifluorfen sodium] | > 46
CN1C2CCC1CC(OC(=O)c1cc(Cl)cc(Cl)c1)C2 (stereo unspecified) | > 46
CC(C)NCC(O)c1ccc(N[S+](C)(=O)[O-])cc1 (stereo unspecified) [SOTALOL] | > 46
CC(Cc1ccccc1)NC=O (stereo unspecified) [Formetorex] | > 46
C[C@@H](C(=O)O)c1ccc(-c2ccccc2)c(F)c1 [Flurbiprofen] | > 46
CCCc1ncc(C[n+]2ccccc2C)c(N)n1.Cl.[Cl-] [Amprolium hydrochloride] | > 46
NC/1=N/C(=O)N(C[C@@H](CO)OC[P](O)(O)=O)/C=C1 [CIDOFOVIR] | > 46
CC[N+](CC)(CC)CCOc1ccc(/C=C/c2ccccc2)cc1 [MG 624] | > 46
COc1ccc(CN(CCN(C)C)c2ccccn2)cc1 [MEPYRAMINE] | > 46
CC1=CC(=CC(=C1C\C2=N\CCN2)C)C(C)(C)C [Xylometazoline hydrochloride] | > 46
CCOc1ccccc1C(N)=O [2-Ethoxybenzamide (Ethenzamide)] | > 46
CC(C(=O)O)c1ccc2c(c1)Cc1cccnc1O2 (stereo unspecified) [PRANOPROFEN] | > 46
Cl.O=C1NCC2(CCN(CCc3ccccc3)CC2)O1 [FENSPIRIDE HYDROCHLORIDE] | > 46
COc1cc(CC(C)N)cc(OC)c1OC (stereo unspecified) [(?)-3,4,5-Trimethoxyamphetamine] | > 46

SMILES | IC50 of cell viability [µM]
CC[N+](CC)(CC)CC.[Cl-] [Tetraethylammonium chloride] | > 46
CC(=O)[C@@]1(O)CC[C@H]2[C@@H]3CC\C4=C\C(=O)CC[C@]4(C)[C@H]3CC[C@]12C [Hidroxiprogesterona] | > 46
CC(C)(C)NC(=O)[C@@H]1CC[C@@H]2[C@@H]3CC[C@@H]4NC(=O)\C=C/[C@@]4(C)[C@H]3CC[C@@]12C [Finasteride] | > 46
O=C(N[C@@H]1N=C(c2ccccc2F)c2cccc3c2N(CC3)C1=O)c1cc2ccccc2[nH]1 [Pranazepide] | > 46
NC(=O)c1cccnc1 [Niacinamide] | > 46
COP(=S)(OC)Oc1ccc([S+](N)(=O)[O-])cc1 [Cythioate] | > 46
CN(C)[C@@H]\1[C@@H]2C[C@H]3\C(=C(\O)[C@@]2(O)C(=O)\C(=C1O)C(=O)NCN4CCCC4)C(=O)C5=C(C=CC=C5O)[C@@]3(C)O [Rolitetracycline] | > 46
CC(C)NCC(O)COc1cccc2[nH]ccc12 (stereo unspecified) [PINDOLOL] | > 46
O=C(O)CCC(=O)c1ccc(-c2ccccc2)cc1 [Fenbufen] | > 46
CCC(CCC(C)C1CCC2C3C\C=C/4CC(O)CC[C@@]4(C)C3CC[C@@]12C)C(C)C (stereo partly drawn) [beta-SITOSTEROL] | > 46
CC[C@H]1C[C@H]2[C@@H]3CCC/4=C/C(=O)CC[C@@H]4[C@H]3CC[C@]2(C)[C@H]1O [Oxendolone] | > 46
COC(=O)[C@H]1[C@H]2C[C@H]3c4[nH]c5ccccc5c4CCN3C[C@H]2CC[C@@H]1O [RAUWOLSCINE] | > 46
CCCOC(=O)c1ccccc1O [PROPYL SALICYLATE] | > 46
C[S+](=O)([O-])c1ccc(C(=O)C2C(=O)CCCC2=O)c([N+](=O)[O-])c1 [Mesotrione] | > 46
C[S+](=O)([O-])O.O.O=C(O[C@@H]1C[C@@H]2C[C@@H]3C[C@H](C1)N2CC3=O)c1c[nH]c2ccccc12 [DOLASETRON MESYLATE] | > 46
CC(=O)OC1CC2CCC1(C)C2(C)C (stereo unspecified) [BORNYL ACETATE] | > 46
NC(=O)OCCCc1ccccc1 [Phenprobamate] | > 46
C1C[C@@H](\C2=N\CCN2)C3=C(C1)C=CC=C3 [Tetrahydrozoline hydrochloride] | > 46
CC(C)[N+](C)(C)CC(O)COc1cccc2ccccc12 (stereo unspecified) [PRANOLII CHLORIDUM] | > 46
COc1cc(Nc2c(C#N)cnc3cc(OCCCN4CCN(C)CC4)c(OC)cc23)c(Cl)cc1Cl [Bosutinib Methanoate] | > 46
S=P(N1CC1)(N1CC1)N1CC1 [THIO-TEPA] | > 46
O=NN(CCCl)C(=O)NC1CCCCC1 [LOMUSTINE] | > 46

SMILES | IC50 of cell viability [µM]
CCCCC(=O)[O-] [Valeric acid] | > 46
O=C(O)CCCc1ccccc1 [SODIUM PHENYLBUTYRATE] | > 46
Cc1cn([C@H]2CC(F)[C@@H](CO)O2)c(=O)[nH]c1=O (stereo partly specified) [Alovudine] | > 46
Nc1ccc(C(=O)O)cc1 [p-Amino benzoic acid] | > 46
CC1(C)O[C@H]2C[C@@H]3[C@H]4CC\C5=C\C(=O)CC[C@@]5(C)[C@]4(F)[C@@H](O)C[C@]3(C)[C@]2(O1)C(=O)CCl [Halcinonide] | > 46
O=C1OC(CO)C(O)C(O)C1O (stereo unspecified) [GLUCONOLACTONE] | > 46
[Na+].CCN1CCN(C(=O)NC(C(=O)NC2C3SC\C(=C(/N3C2=O)C([O-])=O)CSC4=NN=N[N]4C)C5=CC=C(O)C=C5)C(=O)C1=O (stereo unspecified) [CEFOPERAZONE SODIUM] | > 46
COC(=O)c1ccc(O)cc1 [Methylparaben] | > 46
CCCCCCCCCCCCCCCCCC(=O)[O][Al]([OH])[OH] [Aluminum monostearate] | > 46
CC(C)C(C)(C)C(C)(C)C(C)(C)S [tert-Dodecanethiol] | > 46
OCCCBr [3-Bromo-1-propanol] | > 46
Nc1ncnc(Nc2ccc(Cl)cc2)n1 [2-AMINO-4-(4-CHLOROANILINO)-1,3,5-TRIAZINE] | > 46
CC(CN(C)C)CN1c2ccccc2Sc2ccc(C(F)(F)F)cc21 (stereo unspecified) [TRIFLUOMEPRAZINE MALEATE] | > 46
OC[C@@H]1O[C@@](CO)(OC2O[C@H](CO)[C@@H](O)[C@H](O)[C@@H]2O)[C@@H](O)[C@@H]1O (stereo partly specified) [Sucralox] | > 46
NCCCCC(NC(=O)C1CCCN1C(=O)C1CSSCC(N)C(=O)NC(Cc2ccccc2)C(=O)NC(Cc2ccccc2)C(=O)NC(CCC(N)=O)C(=O)NC(CC(N)=O)C(=O)N1)C(=O)NCC(N)=O (stereo unspecified) [FELYPRESSIN] | > 46
CN(C)C(=O)COC(=O)Cc1ccc(OC(=O)c2ccc(NC(=N)N)cc2)cc1 [CAMOSTAT MESILATE] | > 46
CNC1(c2ccccc2Cl)CCCCC1=O (stereo in doubt) [(S)-(-)-Ketamine] | > 46
CC(C)(C)C(=O)OCOP(=O)(COCCn1cnc2c(N)ncnc21)OCOC(=O)C(C)(C)C [ADEFOVIR DIPIVOXIL] | > 46
CC12C=CC(=O)C=C1CCC1C2C(O)CC2(C)C1CCC2(O)C(=O)COC(=O)CCC(=O)O (stereo unspecified) [Prednisolone 21-hemisuccinate] | > 46
CC1=CC(=C(O)C(=C1C\C2=N\CCN2)C)C(C)(C)C [OXYMETAZOLINE] | > 46
[O]=[Bi][O]C(=O)[O][Bi]=[O] [Bismuth subcarbonate] | > 46
NC(=O)N[C@H]1NC(=O)NC1=O [Allantoin] | > 46
